In data set [1] the target is Macrophage colony-stimulating factor 1 receptor (Homo sapiens, UniProt P07333).
Another data set deals with NSO. In words: Growth inhibition of MCSF-independent mouse NSO cells.
The nature of data set [2]: Growth inhibition of MCSF expressing mouse M-NSF60 cells.
Data set [3] in a line: Plasma clearance in rat at 3 mg/kg, iv. Format: ADME, organism-based. Details: dose 3 mg/kg, route intravenous.
A further data set deals with Rattus norvegicus. The data set is described as follows: Antiinflammatory activity against carrageenan-induced paw edema in rat assessed as paw size at 40 mg/kg, iv relative to control. The conditions noted are these: read-out: Inhibition. Background: The carrageenan paw model is a standard test of acute inflammation.
The nature of data set [4]: Plasma clearance in rat. Format: ADME, organism-based.

Some results are limits rather than exact numbers.

The results in this text go back to ChEMBL document CHEMBL1140498, “Synthesis of novel anilinoquinolines as c-fms inhibitors” (Bioorg Med Chem Lett, 2007).

Sequence of Macrophage colony-stimulating factor 1 receptor (P07333 whole entry): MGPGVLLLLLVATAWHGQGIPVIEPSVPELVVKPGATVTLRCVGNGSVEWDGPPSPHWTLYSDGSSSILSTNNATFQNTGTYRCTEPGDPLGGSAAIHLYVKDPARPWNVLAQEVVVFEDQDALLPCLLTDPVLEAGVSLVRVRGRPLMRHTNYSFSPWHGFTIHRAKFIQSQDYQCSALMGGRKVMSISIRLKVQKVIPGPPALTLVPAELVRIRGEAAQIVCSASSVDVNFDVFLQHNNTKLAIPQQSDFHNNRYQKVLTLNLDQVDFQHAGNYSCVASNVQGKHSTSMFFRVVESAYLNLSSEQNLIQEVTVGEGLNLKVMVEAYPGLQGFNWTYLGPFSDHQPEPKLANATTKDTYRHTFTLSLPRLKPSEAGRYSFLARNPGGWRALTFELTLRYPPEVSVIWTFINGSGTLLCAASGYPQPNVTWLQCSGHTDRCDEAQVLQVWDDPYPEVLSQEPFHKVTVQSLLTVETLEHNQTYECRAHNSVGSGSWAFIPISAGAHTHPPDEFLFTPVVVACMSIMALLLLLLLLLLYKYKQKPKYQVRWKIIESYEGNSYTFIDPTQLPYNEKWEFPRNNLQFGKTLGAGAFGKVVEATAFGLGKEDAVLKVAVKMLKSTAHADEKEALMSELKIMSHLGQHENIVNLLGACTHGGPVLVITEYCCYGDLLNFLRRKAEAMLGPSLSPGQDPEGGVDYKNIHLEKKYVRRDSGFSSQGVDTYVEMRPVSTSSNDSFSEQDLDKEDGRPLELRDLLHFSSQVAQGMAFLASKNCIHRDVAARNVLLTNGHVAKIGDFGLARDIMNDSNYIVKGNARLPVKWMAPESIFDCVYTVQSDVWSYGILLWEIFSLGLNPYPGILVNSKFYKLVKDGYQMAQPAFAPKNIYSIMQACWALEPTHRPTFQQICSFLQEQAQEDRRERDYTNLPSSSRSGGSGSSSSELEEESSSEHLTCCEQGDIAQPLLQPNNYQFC

For `NC(=O)c1cnc2cc(-c3ccc(S(N)(=O)=O)cc3)ccc2c1Nc1ccccc1`, the IC50 in data set [1] was 80 nM; in the data set on NSO, 13000 nM; in data set [2] it was 3200 nM.

Consider `NC(=O)c1cnc2cc(-c3ccc(C(=O)C4CC4)cc3)ccc2c1Nc1ccccc1`, for which the IC50 was 100 nM in data set [1], 10000 nM in the data set with NSO and 4000 nM in data set [2].

With `CN(C)c1ccc(Nc2c(C(N)=O)cnc3cc(-c4ccncc4)ccc23)cc1`, the IC50 was 63 nM in data set [1], 10000 nM in the data set with NSO and 6300 nM in data set [2].

As for `CC(C)Oc1ccc(Nc2c(C(N)=O)cnc3cc(-c4ccncc4)ccc23)cc1F`, the IC50 was found to be 13000 nM in the data set with NSO and 8000 nM in data set [2].

Regarding `Cc1ccc(Nc2c(C(N)=O)cnc3cc(-c4ccc(S(C)(=O)=O)cc4)ccc23)cc1F`, the IC50 in data set [1] is 63 nM; in the data set on NSO it was over 20000 nM; in data set [2], 3200 nM.

For the molecule `CSc1ccc(Nc2c(C(N)=O)cnc3cc(-c4ccncc4)ccc23)cc1`, the IC50 is 130 nM in data set [1], over 50000 nM in the data set on NSO and 10000 nM in data set [2].

For `CC(=O)Nc1ccc(-c2ccc3c(Nc4ccccc4)c(C(N)=O)cnc3c2)cc1`, the 50% inhibitory concentration (IC50) was 80 nM in data set [1], 4000 nM in the data set on NSO and 1300 nM in data set [2].

As for `N#Cc1ccc(-c2ccc3c(Nc4ccccc4)c(C(N)=O)cnc3c2)cc1`, the IC50 worked out at 50 nM in data set [1], 32000 nM in the data set with NSO and 4000 nM in data set [2].

In the case of `COc1ccc(Nc2c(C(N)=O)cnc3cc(-c4ccncc4)ccc23)cc1F`, the IC50 in data set [1] amounted to 40 nM; in the data set with NSO it was 32000 nM; in data set [2] it was 320 nM.

`Cc1ccc(Nc2c(C(N)=O)cnc3cc(-c4ccncc4)ccc23)cc1F`: the half-inhibitory concentration (IC50) in data set [1] is 80 nM; in the data set with NSO it was over 20000 nM; in data set [2] it was 5000 nM.

With `Cc1ccc(-c2ccc3c(Nc4ccccc4)c(C(N)=O)cnc3c2)cc1`, the IC50 worked out at 25000 nM with NSO and 32000 nM in data set [2].

Consider `NC(=O)c1cnc2cc(-c3ccncc3)ccc2c1Nc1ccc(F)cc1`, for which the half-inhibitory concentration (IC50) is 100 nM in data set [1], over 40000 nM with NSO and 800 nM in data set [2].

As to `COc1ccc(Nc2c(C(N)=O)cnc3cc(-c4ccncc4)ccc23)cc1Cl`, the IC50 in data set [1] was 32 nM; in the data set on NSO, over 50000 nM; in data set [2], 200 nM.

In the case of `NC(=O)c1cnc2cc(-c3ccncc3)ccc2c1Nc1ccc(F)c(F)c1`, the IC50 is 32 nM in data set [1], over 32000 nM in the data set on NSO and 2500 nM in data set [2].

With `CS(=O)(=O)c1ccc(-c2ccc3c(Nc4ccc(F)c(F)c4)c(C(N)=O)cnc3c2)cc1`, the 50% inhibitory concentration (IC50) is 200 nM in data set [1], over 20000 nM in the data set on NSO and 2000 nM in data set [2].

Take `CCS(=O)(=O)c1ccc(-c2ccc3c(Nc4ccccc4)c(C(N)=O)cnc3c2)cc1`: the IC50 in data set [1] was 200 nM; in the data set with NSO, 8000 nM; in data set [2], 800 nM.

For the molecule `Cc1cc(Nc2c(C(N)=O)cnc3cc(-c4ccncc4)ccc23)ccc1F`, the IC50 is 50 nM in data set [1], over 50000 nM in the data set on NSO and 1000 nM in data set [2].

For `Cc1ccc(Nc2c(C(N)=O)cnc3cc(-c4ccncc4)ccc23)cc1Cl`, the results for the concentration for half-maximal inhibition (IC50) (in data set [1]; in the data set with NSO; in data set [2]) were 40 nM, over 32000 nM and 160 nM, respectively.

For the molecule `Cc1ccc(Nc2c(C(N)=O)cnc3cc(-c4ccc(S(C)(=O)=O)cc4)ccc23)cc1C`, the IC50 is 8 nM in data set [1], 10000 nM in the data set with NSO and 100 nM in data set [2]. The clearance in data set [3] amounted to 51 mL/min/kg.

Take `COc1ccc(Nc2c(C(N)=O)cnc3cc(-c4ccncc4)ccc23)cc1`: the IC50 in data set [1] worked out at 63 nM; in the data set on NSO, 16000 nM; in data set [2] it was 800 nM.

Turning to `NC(=O)c1cnc2cc(-c3ccc(C(F)(F)F)cc3)ccc2c1Nc1ccccc1`, the values for the IC50 (in data set [1]; in the data set on NSO; in data set [2]) were 130 nM, 20000 nM and 16000 nM, respectively.

Turning to `NC(=O)c1cnc2cc(-c3ccc(C(=O)C4CCCC4)cc3)ccc2c1Nc1ccccc1`, the IC50 in data set [1] was 32 nM; in the data set on NSO, over 20000 nM; in data set [2], over 20000 nM.

For `NC(=O)c1cnc2cc(-c3ccncc3)ccc2c1Nc1ccc(OC(F)(F)F)c(Cl)c1`, the concentration for half-maximal inhibition (IC50) in data set [1] is 32 nM; in the data set with NSO, over 32000 nM; in data set [2], over 20000 nM.

With `CS(=O)(=O)c1ccc(-c2ccc3c(Nc4ccc(F)cc4)c(C(N)=O)cnc3c2)cc1`, the half-inhibitory concentration (IC50) worked out at 160 nM in data set [1], 10000 nM with NSO and 400 nM in data set [2]. Besides, the clearance in data set [3] was determined as 4.5 mL/min/kg.

Regarding `NC(=O)c1cnc2cc(-c3ccccc3)ccc2c1Nc1ccccc1`, the values for the IC50 (with NSO; in data set [2]) were 32000 nM and 10000 nM, respectively.

`CS(=O)(=O)c1ccc(-c2ccc3c(Nc4ccccc4)c(C(N)=O)cnc3c2)cc1`: the IC50 in data set [1] was found to be 16 nM; with NSO it was 20000 nM; in data set [2], 100 nM.

Take `Cc1ccc(Nc2c(C(N)=O)cnc3cc(-c4ccncc4)ccc23)cc1C`: the IC50 in data set [1] is 80 nM; with NSO it was over 50000 nM; in data set [2], 100 nM.

`NC(=O)c1cnc2cc(-c3ccncc3)ccc2c1Nc1n[nH]c2ccccc12`: the values for the half-maximal inhibitory concentration (IC50) (in data set [1]; in the data set on NSO; in data set [2]) were 320 nM, over 50000 nM and 800 nM, respectively.

Take `CCOc1ccc(Nc2c(C(N)=O)cnc3cc(-c4ccncc4)ccc23)cc1F`: the IC50 with NSO is over 16000 nM; in data set [2], 4000 nM.

Regarding `NC(=O)c1cnc2cc(-c3ccc(N)cc3)ccc2c1Nc1ccccc1`, the concentration for half-maximal inhibition (IC50) worked out at 10000 nM in the data set with NSO and 1600 nM in data set [2].

For `NC(=O)c1cnc2cc(-c3ccc(F)cc3)ccc2c1Nc1ccccc1`, the concentration for half-maximal inhibition (IC50) in data set [1] was 32 nM; in the data set on NSO, 25000 nM; in data set [2], 25000 nM.

On to `COc1ccc(Nc2c(C(N)=O)cnc3cc(-c4ccc(S(C)(=O)=O)cc4)ccc23)cc1Cl`, for which the IC50 came to 13000 nM in the data set on NSO and 100 nM in data set [2].

For `CN(C)c1ccc(-c2ccc3c(Nc4ccccc4)c(C(N)=O)cnc3c2)cc1`, the figures for the 50% inhibitory concentration (IC50) (in data set [1]; in the data set on NSO; in data set [2]) were 40 nM, 32000 nM and 6300 nM, respectively.

For the molecule `NC(=O)c1cnc2cc(-c3ccc(Br)cc3)ccc2c1Nc1ccccc1`, the concentration for half-maximal inhibition (IC50) in data set [1] was 16 nM; in the data set on NSO, 50000 nM; in data set [2] it was 50000 nM.

Take `CS(=O)(=O)Cc1ccc(-c2ccc3c(Nc4ccccc4)c(C(N)=O)cnc3c2)cc1`: the values for the IC50 (in data set [1]; with NSO; in data set [2]) were 50 nM, 8000 nM and 1600 nM, respectively.

For `CS(=O)(=O)Cc1cccc(-c2ccc3c(Nc4ccccc4)c(C(N)=O)cnc3c2)c1`, the half-inhibitory concentration (IC50) in data set [1] is 25 nM; in the data set with NSO, over 20000 nM; in data set [2], 5000 nM.

Take `NC(=O)c1cnc2cc(-c3ccc(C(=O)N4CCCCC4)cc3)ccc2c1Nc1ccccc1`: the IC50 in data set [1] was determined as 16 nM; in the data set with NSO it was 8000 nM; in data set [2], 400 nM.

For the molecule `NC(=O)c1cnc2cc(-c3ccc(C(=O)N4CCOCC4)cc3)ccc2c1Nc1ccccc1`, the IC50 in data set [1] amounted to 80 nM; with NSO, 8000 nM; in data set [2] it was 200 nM.

With `NC(=O)c1cnc2cc(-c3ccncc3)ccc2c1Nc1ccon1`, the figures for the 50% inhibitory concentration (IC50) (in data set [1]; with NSO; in data set [2]) were 3200 nM, 40000 nM and over 50000 nM, respectively.

For `NC(=O)c1cnc2cc(-c3ccncc3)ccc2c1Nc1cccc2[nH]ncc12`, the IC50 is 160 nM in data set [1], over 32000 nM with NSO and 1300 nM in data set [2].

In the case of `COc1ccc(-c2ccc3c(Nc4ccccc4)c(C(N)=O)cnc3c2)cc1`, the figures for the half-inhibitory concentration (IC50) (in data set [1]; with NSO; in data set [2]) were 25 nM, 8000 nM and 6300 nM, respectively.

For `NC(=O)c1cnc2cc(-c3ccncc3)ccc2c1Nc1ccccc1`, the inhibition in vivo at 40 mg/kg in the data set with Rattus norvegicus was determined as 95%. In addition, the 50% inhibitory concentration (IC50) was 12000 nM in the data set on NSO and 800 nM in data set [2]. The molecule further yielded a clearance in data set [4] of 39 mL/min/kg.

Take `COc1ccc(Nc2c(C(N)=O)cnc3cc(-c4ccc(S(C)(=O)=O)cc4)ccc23)cc1F`: the concentration for half-maximal inhibition (IC50) turned out to be 100 nM in data set [1], 20000 nM with NSO and 1000 nM in data set [2].

As for `CS(=O)(=O)Nc1ccc(-c2ccc3c(Nc4ccccc4)c(C(N)=O)cnc3c2)cc1`, the half-maximal inhibitory concentration (IC50) in data set [1] worked out at 63 nM; in the data set with NSO it was 10000 nM; in data set [2] it was 2000 nM.

For `CC(C)Oc1ccc(Nc2c(C(N)=O)cnc3cc(-c4ccncc4)ccc23)cc1`, the IC50 is 630 nM in data set [1], over 50000 nM in the data set on NSO and 40000 nM in data set [2].

For `Cc1cc(Nc2c(C(N)=O)cnc3cc(-c4ccncc4)ccc23)ccc1Cl`, the IC50 in data set [1] worked out at 160 nM; in the data set on NSO, 32000 nM; in data set [2], 2000 nM.

`N#Cc1cccc(-c2ccc3c(Nc4ccccc4)c(C(N)=O)cnc3c2)c1`: the half-maximal inhibitory concentration (IC50) was 320 nM in data set [1], 10000 nM with NSO and 8000 nM in data set [2].

As a reminder, the IC50 is the point on the concentration scale where inhibition reaches its midpoint. The clearance is the rate of elimination divided by the concentration. Read a high clearance as efficient removal.
